“Also recorded” adds a separate entry of the source. Read-outs that look alike come from different tables or passages of the source.

Experimental findings from patent publication US9757375B2, “Compounds that inhibit human DNA ligases and methods of treating cancer” (University of Maryland, Baltimore, priority 2007, dated 2017) are described below.

In test [1] the test system is Human DNA ligases I, III and IV and T4 DNA ligase. Put plainly: Step 3 of the ligation reaction: ligation of preadenylated nick by non-adenylated ligase. It counts as biochemical. The conditions noted are these: 100 μM, FIG. 3C. As to the method:
To analyze step 3 of the ligation reaction, an adenylated labeled version of the 18-mer was prepared as described (24). The DNA substrate containing a preadenylated nick (0.5 pmol) and hLigI (0.05 pmol), hLigIIIβ (0.05 pmol), hLigIV/XRCC4 (0.1 pmol), or T4 DNA ligase (0.05 pmol) were incubated in ligation buffer without ATP, either in the presence or absence of the ligase inhibitors (100 μmol/L). Reactions were stopped by the addition of an equal volume of gel loading dye (95% formamide, 0.05% bromophenol blue, and 0.05% xylene cyanol). After heating at 95° C. for 5 min, DNA was separated by denaturing polyacrylamide gel electrophoresis. Labeled oligonucleotides were detected and quantitated in the dried gel by phosphorImager analysis (Molecular Dynamics).
Since the final two steps of the ligation reaction involve interactions with DNA, we examined the effects of the ligase inhibitors on the second (FIG. 3B) (The labeled ligase-adenylate form of human DNA ligases I, III and IV and T4 DNA ligase were incubated with a linear DNA substrate containing a single non-ligatable nick in the absence or presence of compounds 67, 82 and 189 (100 μM). After separation by denaturing gel electrophoresis, the labeled DNA-AMP complex was detected by phosphorimaging (26)) and third steps (FIG. 3C) of the ligation reaction using established assays (25,26) (Non-adenylated human DNA ligases I, III and IV and T4 DNA ligase were incubated with labeled DNA-AMP in the absence or presence of compounds 67, 82 and 189 (100 μM). After separation by denaturing gel electrophoresis, labeled ligated DNA was detected by phosphorimaging (25)).

Test [2] deals with T1, T4 DNA ligase (Enterobacteria phage T4, UniProt P00970).
T1 construct: purchased NEB
T1 sequence (P00970 1-487): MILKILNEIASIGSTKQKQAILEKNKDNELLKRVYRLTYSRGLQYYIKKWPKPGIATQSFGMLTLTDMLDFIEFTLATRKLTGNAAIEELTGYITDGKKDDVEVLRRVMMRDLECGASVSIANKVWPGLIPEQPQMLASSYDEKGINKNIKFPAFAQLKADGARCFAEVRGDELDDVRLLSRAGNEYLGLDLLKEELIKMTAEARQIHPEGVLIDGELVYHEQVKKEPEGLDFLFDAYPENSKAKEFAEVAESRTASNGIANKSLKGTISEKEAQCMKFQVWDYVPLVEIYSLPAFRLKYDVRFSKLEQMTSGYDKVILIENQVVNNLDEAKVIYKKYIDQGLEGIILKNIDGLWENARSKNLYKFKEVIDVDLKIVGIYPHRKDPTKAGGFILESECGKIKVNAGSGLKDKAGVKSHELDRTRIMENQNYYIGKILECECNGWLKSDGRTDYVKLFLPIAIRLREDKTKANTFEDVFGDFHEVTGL
Put plainly: High-throughput fluorescence-based DNA joining assay, non-specific inhibitor control. It counts as biochemical, bacteriophage T4. Put shortly:
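This counter-screen used a FRET-based DNA joining assay. Duplicate reactions held 10 pmol nicked DNA substrate and 10 units T4 DNA ligase, with or without 100 μmol/L compound. T4 ligase lacks the DNA-binding domain targeted in silico, so compounds inhibiting it were flagged as non-specific, likely DNA-binding.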

Test [3] concerns the target T2, hLigI (Homo sapiens, UniProt P18858).
T2 construct: made in house
Put plainly: High-throughput fluorescence-based DNA joining (ligation) assay. The conditions noted are these: for inhibition of hLigI (DNA ligase I), in words: in vitro screen, 100 μmol/L, the 15 hLigI inhibitors inhibited by >50%. Type of test: biochemical. An outline of the steps:
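Nicked DNA substrate (10 pmol) was incubated with 0.25 pmol hLigI, with or without 100 μmol/L test compound, in duplicate. Afterwards the DNA was denatured and renatured with a 20-fold excess of unmodified oligonucleotide. Ligation forms an AF488/BHQ1 hairpin, read as reduced fluorescence at 518 nm.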

Test [4] concerns the target hLigIV/XRCC4 (Homo sapiens, UniProt P49917). Put plainly: Radioactive gel-based DNA ligation assay. It counts as biochemical. On the set-up: concentration or dose not given beside the values.
The target in test [5] is human DNA ligase IV (Homo sapiens, UniProt P49917). Put plainly: High-throughput fluorescence-based DNA joining (ligation) assay. Particulars: for inhibition of human DNA ligase IV, in words: in vitro screen. It counts as biochemical. An outline of the steps:
(§1)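 Ligation joins an AF488-labelled and a BHQ1-labelled oligonucleotide. After denaturation and renaturation with a 20-fold excess of unlabelled competitor strand, the product forms a quenched hairpin, so joining is read as loss of 518 nm fluorescence. Ligase III used a nicked duplex; ligase IV used two duplexes with short complementary single-strand ends.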

Test [6] has as its target T3, human DNA ligase III (Homo sapiens, UniProt P49916).
T3 sequence (P49916 1-862 isoform P49916-4): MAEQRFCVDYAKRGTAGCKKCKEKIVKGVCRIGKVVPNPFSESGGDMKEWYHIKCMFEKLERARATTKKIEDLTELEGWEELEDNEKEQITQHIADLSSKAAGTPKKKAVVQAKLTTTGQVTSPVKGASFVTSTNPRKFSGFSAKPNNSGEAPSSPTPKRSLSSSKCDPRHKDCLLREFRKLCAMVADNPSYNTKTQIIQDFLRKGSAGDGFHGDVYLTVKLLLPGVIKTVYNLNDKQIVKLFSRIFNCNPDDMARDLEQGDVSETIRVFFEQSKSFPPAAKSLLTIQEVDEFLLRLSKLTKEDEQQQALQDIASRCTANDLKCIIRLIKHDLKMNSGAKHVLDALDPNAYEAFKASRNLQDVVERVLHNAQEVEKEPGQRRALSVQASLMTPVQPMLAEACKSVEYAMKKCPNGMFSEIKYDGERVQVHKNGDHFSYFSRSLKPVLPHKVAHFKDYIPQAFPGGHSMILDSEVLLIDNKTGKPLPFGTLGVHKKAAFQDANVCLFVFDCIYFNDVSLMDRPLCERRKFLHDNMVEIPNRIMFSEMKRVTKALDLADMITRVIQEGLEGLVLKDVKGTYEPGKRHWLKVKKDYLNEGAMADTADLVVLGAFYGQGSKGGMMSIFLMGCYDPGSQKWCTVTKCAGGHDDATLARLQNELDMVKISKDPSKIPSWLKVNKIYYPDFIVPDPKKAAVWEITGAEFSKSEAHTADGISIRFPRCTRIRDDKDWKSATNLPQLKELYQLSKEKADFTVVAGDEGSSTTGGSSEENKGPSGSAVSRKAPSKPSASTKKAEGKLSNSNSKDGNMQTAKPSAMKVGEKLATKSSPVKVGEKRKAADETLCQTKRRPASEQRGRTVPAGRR
The test is described as above. It counts as biochemical. The conditions noted are these: for % activity Inhibition hLigIII 100 uM: Ø not defined (0 in Table 5A); for inhibition at 100 µM: read-out: In vitro % inhib hLigIII 100. An outline of the steps:
as §1

For test [7], the target named is T4, hLigIIIβ (Homo sapiens, UniProt P49916).
T4 sequence (P49916 1-862 isoform P49916-4): T3 sequence (P49916 1-862 isoform P49916-4)
Put plainly: Radioactive gel-based DNA ligation assay. Particulars: grades ±, Ø (key not given). Type of test: biochemical.

Test [8] deals with MCF7, HCT116, HeLa, and MCF10A cells. Put plainly: Survival assay on cell panel (FIG. 9). The conditions noted are these: Homo sapiens; cell line not stated. It counts as cell-based, human. From the text:
FIG. 9. […] A, effect of L67 (left) and L189 (right) on the survival of MCF7 (Δ), HCT116 (□), HeLa (⋄), and MCF10A (upsidedown triangle) cells. B, normal breast epithelial MCF10A cells (open symbols) and breast cancer MCF7 cells (filled symbols) in the absence (circles) or presence of 3 μmol/L of L67 (squares) were exposed to increasing concentrations of MMS (left). Normal breast epithelial MCF10A cells (open symbols) and colon cancer HCT116 cells (filled symbols) in the absence (circles) or presence of 20 μmol/L of L189 (squares) were exposed to increasing doses of ionizing radiation (right). C, hLigI (I), hLigIIIα (III), and hLigIV (IV) were detected in extracts (400 μg) of the indicated cell lines by immunoblotting. To control for extract loading β-actin was also detected by immunoblotting.
For survival assays, cells were plated in 6 well plates and grown either in the absence or presence of ligase inhibitors. Where indicated, either MMS (0-50 μM) was added to the medium or the cells were irradiated in a Cs-137 irradiator (0-2.5 Gy). After two weeks, colonies were stained with crystal violet (Sigma) and then counted.

Setting [9] is: 100 uM, Ø not defined (0 in Table 5A).
The mark [10] stands for this setting: 100 μM, read-out: In vitro % inhib T4 100.
Where [11] appears, read: 100 μM, read-out: In vitro % inhib hLigI 100.
The mark [12] stands for this setting: 100 μM, read-out: In vitro % inhib hLigIV 100.
Where [13] appears, read: 100 uM, Ø not defined (0 in Table 5A), read-out: % activity Inhibition hLigIV 100 uM.

T2 sequence (P18858 whole entry): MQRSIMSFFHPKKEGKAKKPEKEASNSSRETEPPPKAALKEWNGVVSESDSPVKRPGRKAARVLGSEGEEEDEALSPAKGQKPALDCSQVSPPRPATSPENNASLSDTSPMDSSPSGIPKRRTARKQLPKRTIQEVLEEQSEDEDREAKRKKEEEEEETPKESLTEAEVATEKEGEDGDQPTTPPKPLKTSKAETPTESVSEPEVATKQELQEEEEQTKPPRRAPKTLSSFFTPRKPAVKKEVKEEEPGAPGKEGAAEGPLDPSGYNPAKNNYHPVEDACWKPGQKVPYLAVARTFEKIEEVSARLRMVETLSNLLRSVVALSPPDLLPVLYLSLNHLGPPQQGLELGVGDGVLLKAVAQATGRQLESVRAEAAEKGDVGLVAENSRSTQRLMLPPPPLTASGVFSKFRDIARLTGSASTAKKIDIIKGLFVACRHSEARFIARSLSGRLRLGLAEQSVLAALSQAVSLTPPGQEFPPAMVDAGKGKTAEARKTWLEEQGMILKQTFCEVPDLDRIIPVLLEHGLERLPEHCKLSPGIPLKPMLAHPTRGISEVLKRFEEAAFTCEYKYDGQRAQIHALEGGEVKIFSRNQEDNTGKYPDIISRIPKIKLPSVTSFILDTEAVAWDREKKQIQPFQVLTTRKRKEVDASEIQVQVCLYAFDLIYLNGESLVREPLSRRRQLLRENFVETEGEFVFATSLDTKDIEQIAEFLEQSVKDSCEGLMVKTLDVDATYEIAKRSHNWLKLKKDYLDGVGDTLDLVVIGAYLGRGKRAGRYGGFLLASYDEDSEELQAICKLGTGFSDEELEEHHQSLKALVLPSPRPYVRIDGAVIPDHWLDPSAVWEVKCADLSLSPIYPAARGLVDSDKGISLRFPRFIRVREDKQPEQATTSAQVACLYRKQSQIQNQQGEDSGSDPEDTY
human DNA ligase IV, sequence (P49917 whole entry): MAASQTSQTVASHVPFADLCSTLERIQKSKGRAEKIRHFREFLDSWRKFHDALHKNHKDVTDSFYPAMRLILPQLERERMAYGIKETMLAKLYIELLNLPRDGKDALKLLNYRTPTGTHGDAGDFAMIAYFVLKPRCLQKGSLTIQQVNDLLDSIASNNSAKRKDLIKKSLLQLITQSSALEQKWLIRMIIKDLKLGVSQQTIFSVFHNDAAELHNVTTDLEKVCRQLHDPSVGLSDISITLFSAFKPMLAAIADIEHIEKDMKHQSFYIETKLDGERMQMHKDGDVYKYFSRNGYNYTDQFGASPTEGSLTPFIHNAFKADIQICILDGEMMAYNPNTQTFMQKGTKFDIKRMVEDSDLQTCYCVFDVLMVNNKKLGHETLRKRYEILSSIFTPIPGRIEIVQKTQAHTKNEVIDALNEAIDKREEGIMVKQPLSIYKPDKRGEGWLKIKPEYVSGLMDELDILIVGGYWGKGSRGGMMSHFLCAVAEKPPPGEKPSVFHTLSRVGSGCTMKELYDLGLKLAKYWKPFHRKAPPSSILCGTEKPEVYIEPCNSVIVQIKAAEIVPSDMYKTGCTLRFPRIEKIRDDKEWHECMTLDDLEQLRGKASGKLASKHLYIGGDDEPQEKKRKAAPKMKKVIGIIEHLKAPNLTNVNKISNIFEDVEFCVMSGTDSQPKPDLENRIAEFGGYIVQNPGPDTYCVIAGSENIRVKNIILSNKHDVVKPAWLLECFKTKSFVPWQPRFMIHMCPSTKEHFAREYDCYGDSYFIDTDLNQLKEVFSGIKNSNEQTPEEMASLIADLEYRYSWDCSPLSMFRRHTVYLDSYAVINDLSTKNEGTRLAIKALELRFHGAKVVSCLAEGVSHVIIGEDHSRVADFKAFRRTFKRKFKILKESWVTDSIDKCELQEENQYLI
human DNA ligase IV, sequence (Q13426 whole entry partner): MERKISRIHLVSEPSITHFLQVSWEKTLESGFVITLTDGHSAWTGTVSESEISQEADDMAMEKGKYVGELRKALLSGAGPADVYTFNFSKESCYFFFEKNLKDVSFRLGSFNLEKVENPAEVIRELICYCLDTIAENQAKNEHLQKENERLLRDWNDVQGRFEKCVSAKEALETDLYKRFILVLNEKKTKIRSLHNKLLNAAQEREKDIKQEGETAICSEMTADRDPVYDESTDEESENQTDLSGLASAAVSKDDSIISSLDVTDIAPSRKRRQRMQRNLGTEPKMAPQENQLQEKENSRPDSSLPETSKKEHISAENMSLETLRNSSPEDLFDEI
hLigIV/XRCC4, sequence (P49917 whole entry): as the sequence (P49917 whole entry) above
hLigIV/XRCC4, sequence (Q13426 whole entry partner): as the sequence (Q13426 whole entry partner) above

Regarding `O=C(O)CN1C(=O)C(=O)c2ccccc21` [Compound 76], in test [1], the “inhibition of step 3 of the ligation reaction” value is “inhibit step 3”.
Regarding `NS(=O)(=O)c1ccc(CCNC(=O)CCS(=O)(=O)c2ccc(Br)cc2)cc1` [Compound 113], the “% activity Inhibition LigT4 100 uM” value in test [2] was 5.4 ± 4.5%. Moreover, in test [2] (100 μM), the “In vitro % inhib T4 100 (μM)” value is given as 5 ± 5%. Besides, the “% activity Inhibition hLigI 100 uM” value in test [3] (100 uM) is recorded as 53.4 ± 7.6%. In addition, the “In vitro % inhib hLigI 100 (μM)” value in test [3] (100 μM) is 53 ± 8%. Also, the “hLigI_Inh % (100 μM)” value in test [3] (100 μM, percentage of values obtained with DMSO alone) is 53.4 ± 7.6%. Besides, the “inhibition of hLigI (DNA ligase I), in words” value in test [3] was “inhibited hLigI; also recorded: specifically inhibits both DNA ligases I and IV”. Also, in test [4], the “% activity Inhibition hLigIV gel” value stood at 83%. In test [5] (100 μM), the “In vitro % inhib hLigIV 100 (μM)” value stood at 83 ± 5%. Also, the “% activity Inhibition hLigIV 100 uM” value in test [5] (setting [9]) is >50%. In test [5], the “inhibition of human DNA ligase IV, in words” value was “specifically inhibits both DNA ligases I and IV”. The “In vitro % inhib hLigIII 100 (μM)” value in test [6] (100 μM) is listed as 0%. In addition, the “% activity Inhibition hLigIII 100 uM” value in test [6] is listed as “Ø”. The “% activity Inhibition hLigIII gel” value in test [7] is “Ø”.
As usually defined, the EC50 is the concentration that produces a half-maximal response. As to `O=C(O)c1cnn2c(C(F)(F)F)cc(-c3ccco3)nc12` [Compound 215], in test [2], the “% activity Inhibition LigT4 100 uM” value is reported as “Ø”. For the same molecule, the inhibition at 100 µM in test [2] (setting [10]) amounted to 0%; in test [3] (setting [11]), 0%; in test [5] (setting [12]) it was 61 ± 1%; in test [5] (setting [13]), 60.7 ± 1.3%; in test [6] (100 μM), 0%. For the same molecule, the “% activity Inhibition hLigI 100 uM” value in test [3] (100 uM) is reported as “Ø”. Further, in test [4], the “% activity Inhibition hLigIV gel” value came out at 53%. The “inhibition of human DNA ligase IV, in words” value in test [5] is “specific for DNA ligase IV”. Also, the “% activity Inhibition hLigIII 100 uM” value in test [6] is “Ø”. Further, the EC50 in test [8] was > 100 µM.
Consider `CSc1ccc(C(=O)O)s1` [Compound 1], for which the inhibition at 100 µM in test [2] (setting [10]) was 0%; in test [2] (read-out: % activity Inhibition LigT4 100 uM), 0%; in test [3] (100 uM, read-out: % activity Inhibition hLigI 100 uM), 40.3 ± 8.6%; in test [3] (setting [11]) it was 40 ± 9%; in test [5] (setting [12]) it was 0%; in test [6] (100 μM), 0%. The “inhibition of hLigI (DNA ligase I), in words” value in test [3] was “specific for DNA ligase I”. Also, the “% activity Inhibition hLigIV 100 uM” value in test [5] (setting [9]) is reported as “Ø”. Further, in test [6], the “% activity Inhibition hLigIII 100 uM” value was “Ø”. For the same molecule, the “% activity Inhibition hLigIII gel” value in test [7] is reported as “Ø”.
Regarding `O=C(O)Cc1cncc(Br)c1` [Compound 122], in test [2], the “% activity Inhibition LigT4 100 uM” value is “Ø”. Further, the inhibition at 100 µM in test [2] (setting [10]) was 0%; in test [3] (setting [11]) it was 0%; in test [5] (setting [12]), 50 ± 5%; in test [5] (setting [13]) it was 16.1 ± 19.1%; in test [6] (100 μM), 0%. In test [3] (100 uM), the “% activity Inhibition hLigI 100 uM” value was “Ø”. The “% activity Inhibition hLigIV gel” value in test [4] is reported as 50%. For the same molecule, the “inhibition of human DNA ligase IV, in words” value in test [5] is given as “specific for DNA ligase IV”. Further, the “% activity Inhibition hLigIII 100 uM” value in test [6] is reported as “Ø”. The EC50 in test [8] was > 100 µM.
